Values quoted from earlier work as cited in US20090162444A1, “RALOXIFENE COMPOSITION” (priority 2007, published 2009).
Where a name gives a salt, the structure may show the parent alone.

Experiments:
[1] = not given; remark: listed apart in the source
[2] = oral administration

Compound	solubility in water	solubility in gastric and intestinal fluid [1]	absolute bioavailability [2]
O=C(c1ccc(OCCN2CCCCC2)cc1)c1c(-c2ccc(O)cc2)sc2cc(O)ccc12 [Raloxifene hydrochloride, raloxifene hydrochloride]	627 µg/mL	very slightly soluble	
O=C(c1ccc(OCCN2CCCCC2)cc1)c1c(-c2ccc(O)cc2)sc2cc(O)ccc12 [Raloxifene, (6-hydroxy-2-(4-hydroxy-phenyl)benzo[b]thien-3-yl)-(4-(2-(1-piperidinyl)ethoxy)phenyl)methanone]			about 2%
